The values that follow are results of earlier work, collected in patent publication US7879572B2, “Regulation of F1-ATPase beta subunit cellular location” (Board of Supervisors of Louisiana State University And …, priority 2004, dated 2011).

The subject of one data set is islet cells. The note with it: 8-Br-cAMP 1 mM, independent of extracellular Ca2+.

Molecules are shown by their SMILES.

Turning to `Nc1ncnc2c1nc(Br)n2[C@@H]1O[C@@H]2COP(=O)(O)O[C@H]2[C@H]1O` [8-Br-cAMP], the “effect on enterostatin inhibition of insulin secretion” value in the data set on islet cells was “blocked”.

Take `Oc1ccc2c3c1O[C@H]1c4[nH]c5c(c4C[C@@]4(O)[C@@H](C2)N(CC2CC2)CC[C@]314)C[C@@]1(O)[C@H]2Cc3ccc(O)c4c3[C@@]1(CCN2CC1CC1)[C@H]5O4` [nor-Binaltorphamine (BNI), nor-Binaltorphamine]: for the setting “kappa-opioidergic antagonist”, the selective fat intake entry is reported as “mimicked the effect of enterostatin”. On to `NCCc1c[nH]c2ccc(O)cc12` [serotonin], for which the dietary fat intake entry (injections into the PVN) is “inhibited dietary fat intake”.
